Data on 2 compounds can be found in patent US11497713B2, “Combination taxoid nanoemulsion with immunotherapy in cancer” (TargaGenix, Inc., priority 2017, dated 2022).

For one data set, the system named is prostate CD133+ cells. Nature of the data set: Prostate cancer stem cells under stemness-promoting culture conditions. Type of data set: cell-based. The procedure: In studies with DHA-SBT-1214 and prostate cancer stem cells, Applicants previously determined that low concentrations of DHA-SBT-1214 (0.1-1 μM) induced up to 80-90% death of the highly tumorigenic and highly drug-resistant prostate CD133^+ cells maintained under stemness-promoting culture conditions.

The subject of data set [1] is CSCs purified from three human colon cancer cell lines, DLD-1, HTC-116, and HT-29. The note with it: cited from earlier work.
The target in data set [2] is P-glycoprotein (P-gp) transporter (Homo sapiens, UniProt P08183). The following applies: cited from earlier work.
P-glycoprotein (P-gp) transporter, sequence (P08183 whole entry): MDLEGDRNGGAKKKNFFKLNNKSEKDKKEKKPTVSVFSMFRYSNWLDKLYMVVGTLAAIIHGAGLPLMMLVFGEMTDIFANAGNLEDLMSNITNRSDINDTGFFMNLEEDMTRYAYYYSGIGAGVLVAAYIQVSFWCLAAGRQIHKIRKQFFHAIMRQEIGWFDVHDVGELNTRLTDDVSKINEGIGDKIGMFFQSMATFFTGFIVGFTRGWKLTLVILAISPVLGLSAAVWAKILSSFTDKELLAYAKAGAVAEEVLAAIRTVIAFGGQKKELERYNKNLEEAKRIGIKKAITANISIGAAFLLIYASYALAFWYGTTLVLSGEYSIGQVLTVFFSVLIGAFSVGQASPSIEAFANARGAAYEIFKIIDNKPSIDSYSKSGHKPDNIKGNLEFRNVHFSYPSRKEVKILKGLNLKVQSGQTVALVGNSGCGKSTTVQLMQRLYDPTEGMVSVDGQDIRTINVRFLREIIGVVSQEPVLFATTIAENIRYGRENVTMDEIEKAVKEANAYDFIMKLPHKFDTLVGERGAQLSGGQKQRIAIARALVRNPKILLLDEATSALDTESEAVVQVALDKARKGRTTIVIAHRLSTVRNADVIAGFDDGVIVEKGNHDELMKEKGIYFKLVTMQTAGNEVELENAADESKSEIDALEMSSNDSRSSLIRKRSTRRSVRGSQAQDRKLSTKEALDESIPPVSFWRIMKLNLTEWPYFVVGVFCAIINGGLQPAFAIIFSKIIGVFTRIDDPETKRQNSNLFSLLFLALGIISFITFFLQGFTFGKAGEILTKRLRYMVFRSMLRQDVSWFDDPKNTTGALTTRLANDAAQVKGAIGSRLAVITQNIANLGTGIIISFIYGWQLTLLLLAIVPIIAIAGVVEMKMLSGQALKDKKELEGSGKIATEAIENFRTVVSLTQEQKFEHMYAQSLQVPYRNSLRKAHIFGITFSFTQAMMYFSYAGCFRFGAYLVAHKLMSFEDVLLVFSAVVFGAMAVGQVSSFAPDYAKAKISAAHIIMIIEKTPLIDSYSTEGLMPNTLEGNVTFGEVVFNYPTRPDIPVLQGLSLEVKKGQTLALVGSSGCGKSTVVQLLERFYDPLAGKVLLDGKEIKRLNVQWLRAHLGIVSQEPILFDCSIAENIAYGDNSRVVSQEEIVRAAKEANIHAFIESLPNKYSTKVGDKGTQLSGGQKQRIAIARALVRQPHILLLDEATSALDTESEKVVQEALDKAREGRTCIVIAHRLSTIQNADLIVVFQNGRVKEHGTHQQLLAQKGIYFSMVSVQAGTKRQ
Data set [3] relates to colon and prostate cancer cell lines grown as spheroids. Nature of the data set: Spheroid assay with CD133high/CD44high colon and prostate cancer cells. Type of data set: cell-based. The following applies: cells selected for CD133high/CD44high. From the text:
The results from experiments using DHA-SBT-1214 in two human pancreatic tumor models (FIGS. 2 and 3) and a proof-of-concept in patient-derived CSC model are described below. The compelling aspects of DHA-SBT-1214 preclinical activity is its effects on CSCs. Highly plastic CSCs are an important new drug target in the treatment of refractory tumors. Through the development of drugs specifically targeting CSCs (or targeting CSCs in addition to tumor cells) a more durable clinical response may be possible. In addition to the previously described cytotoxicity assays in cell cultures, DHA-SBT-1214 was tested in colon and prostate cancer cell lines grown as spheroids from cells selected for being CD133^high/CD44^high, characteristic of stem cells. […] Perhaps more significant was the effect of exposure to relatively low concentrations of DHA-SBT-1214 (100 nM to 1 μM) for 24 hours on the expression of genes associated with “sternness” in several colon and prostate cancer cells lines grown as microspheres (6,7).

A short description of data set [4]: Formulation concentration, droplet properties and storage stability.
Text: The droplet size is consistently less than 200 nm in diameter allowing one to filter sterilize the final formulation. The zeta potential of the nanoemulsion is in the range of negative 23 mV to 33 m.
Data set [5] deals with human PANC-1 pancreatic tumor xenograft. Nature of the data set: Human PANC-1 pancreatic tumor xenograft, schedule comparison (FIG. 3). Format: in vivo, RPCI SCID mice. The source says:
In FIG. 3, this experiment compared a q7d×3 with a q3d×3 schedule for paclitaxel and DHA-SBT-1214 using a human PANC-1 pancreatic tumor xenograft in RPCI SCID mice. […] Paclitaxel was only weakly effective, showing tumor growth delays of 18 days with q7d×3 schedule and 13 days with q3d×3 schedule and no CRs.
(In general: In xenograft studies the graft and the host belong to different species.)

Data set [6] deals with PD-L1, PD-1, CD4, CD8 and Arginase-1 expression in tumor tissues. Nature of the data set: RT-PCR and western blotting of Panc02 tumor tissues. Format: in vivo, mouse. The following applies: anti-PD-L1 combination versus IgG treated group. The procedure: Cells and tumor tissues were washed twice with phosphate-buffered saline (PBS) and lysed in ice-cold lysis buffer containing 2% proteinase inhibitor (both from Sigma-Aldrich Co., St. Louis, Mo., USA). Cells were retrieved with a cell scraper, stirred and incubated on ice for 15 minutes. Mice tumor tissues were sonicated for 10 seconds on ice with sonicator. Lysates were centrifuged, supernatants were collected, and protein concentration was determined using the Bio-Rad protein assay (Bio-Rad Laboratories, Hercules, Calif., USA). The supernatants were diluted with lysis buffer to create equal concentrations of protein. […] Immunocomplexes were detected using western blotting (ECL Prime; GE Healthcare UK Ltd., Buckinghamshire, UK).
The expression level of PD-L1 and mRNA for other proteins was determined using real-time PCR as previously described. […] Relative quantifications of gene expression with qRT-PCR data were calculated relative to murine β-actin.
To investigate how the anticancer agents, induce PD-L1, PD-1, CD4, CD8 and Arginase-1 mRNA expression in pancreatic cancer tumor tissues, the mRNA level of PD-L1, PD-1, CD4, CD8, and Arginase-1 either alone or in combination of immune checkpoint inhibitor was determined by RT-PCR. […]

As to `CC/C=C\C/C=C\C/C=C\C/C=C\C/C=C\C/C=C\CCC(=O)O[C@@H](C(=O)O[C@H]1C[C@@]2(O)[C@@H](OC(=O)c3ccccc3)[C@@H]3[C@]4(OC(C)=O)CO[C@@H]4C[C@H](O)[C@@]3(C)C(=O)[C@H](OC(=O)C3CC3)C(=C1C)C2(C)C)[C@H](C=C(C)C)NC(=O)OC(C)(C)C` [DHA-SBT-1214, Docosahexaenoic acid conjugate of SBT-1214], the cell death with prostate CD133+ cells (0.1-1 μM) is given as 80-90%. For the same compound, in the data set on prostate CD133+ cells (previously absent expression), the “expression of pro-apoptotic proteins p53 and p21” value is given as “significant up-regulation”. Further, the “expression of stem related genes” value in data set [1] is reported as “down-regulate stem related genes”. Moreover, in data set [2], the “substrate for MDR mechanisms such as P-gp over-expression” value was “not a substrate”. The number of spheroids result in data set [3] is “greatly reduced”. Further, the “increase in drug concentration in omega-3 fatty acid based nanoemulsion by DHA conjugation” value in data set [4] is recorded as 5 fold. Moreover, the stability entry in data set [4] (in Solutol-HS15) is listed as “less than 24 hours”. This compound also showed a formulated drug concentration in data set [4] (in Tween 80 or Solutol-HS15) of 6 mg/mL. The toxic deaths result in data set [5] (300 mg/kg total dose) is on record as “one toxic death”. Besides, in data set [5] (PANC-1 xenograft), the “complete responses (CRs)” value is “achieved CRs and essentially were cured”. The compound further returned a tumor growth delay in data set [5] (both schedules (q7d×3 and q3d×3)) above 90 days. The same compound yielded an MTD in data set [5] (total dosage (80 mg/kg×3 inj)) of 240 mg/kg.

Take `Nc1ccn([C@@H]2O[C@H](CO)[C@@H](O)C2(F)F)c(=O)n1` [gemcitabine]: in data set [6], the “PD-1 and CD4 mRNA level” value was “not significantly higher”.
